Results on eight molecules are retold here after patent US20130196991A1, “SUBSTITUTED INDOLES, ANTIVIRAL ACTIVE COMPONENT, METHOD FOR PREPARATION AND USE THEREOF” (priority 2010, published 2013).

The structures appear in SMILES notation. Structures can show the parent of a compound that is named as a salt.

The first experiment has as its system JFH-1 HCV. Put plainly: microbe, parasite or virus in culture. It counts as cell-based, hepatitis C virus (HCV). Conditions: Hepatitis C virus, Huh-7, read-out: Inhibition of hepatitis C virus (IC50). As for the experimental part:
Determination of antiviral activity of compounds of the general formula 1 towards hepatitis C viruses.
Determination of antiviral activity of compounds of the general formulas 1, 1.1, 1.2, 1.3, 1.3.1, 1.3.1.1 towards HCV was carried out on Huh7 cell culture. Immune in vitro (ELISA—enzyme-linked immunosorbent assay) test ELISA towards HCV virus cor-antigen was used. By means of this test inhibition effectiveness of antigen production (and, consequently, virus replication) by tested compounds in cells infected by JFH-1 virus was measured. Used in this experiment Huh7 cell culture having been infected with HCV virus is capable to support full range of viral replication.
Recombinant JFH-1 HCV virus used in the experiment was prepared by means of transfection of Huh7 cells by RNA JFH-1, prepared by transcription in vitro. JFH-1 DNA [Wakita, T. u ∂p. Production of Infectious Hepatitis C Virus in Tissue Culture from a Cloned Viral Genome. Nature Medicine 2005, 11:791-796.]) used as DNA matrix for transcription (NCBI, catalogue number AB047639, was synthesized chemically.
Huh7 cells were sowed in 96-well plates (3.0×10^3 cells in every well) Huh-7 medium (50 μl per every well). 9 solutions of every tested compound in Huh-7 medium in the range of concentrations of 0.09-200 μM were prepared. In 4 h after cell sowing the initial solution was removed by aspiration, after that 50 μl of tested compound solution and 50 μl of JFH-1 HCV were added to every well. As a result, the final concentrations of the tested compounds were in the range of 0.045-100 μM. If required the step of infection was carried out in 24 h after addition of tested compounds. After incubation for 16 h viral medium was removed by aspiration, and the tested compounds were added to the cultures in initial concentration to final value of 200 μl. The cells and tested compounds were incubated additionally for 4 days at 37° C. in the atmosphere of air containing 5% CO2. After the removal of nutrient solution the cells were fixed by addition of acetone/methanol (1:1) mixture in amount of 250 μl/well for 1 minute, washed three times with Phosphate Buffer (PBS buffer and then they were blocked by 10% FBS-PBS solution (150 μl/well)) for 1 h at room temperature. Each well was washed three times with PBS solution, incubated with mouse monoclonal antibodies to HCV cor-antigen (Affinity BioReagents, Catalogue: MA1-080), dissolved in FBS-PBS buffer (100 μl/well, prepared from the initial concentrate, diluted in the ratio 1:500 in 10% FBS-PBS), for 2 h at 37° C. Each well was washed three times with PBS solution, incubated with antibodies specific to mouse immunoglobulins, conjugated with horseradish peroxidase (HRP, 100 mkl/well of solution prepared from the initial concentrate, diluted in ratio 1:2500 in 10% FBS-PBS) for 1 h at 37° C. Each well was washed three times with PBS solution, then treated with OPD solution in amount of 100 μl/well (prepared by dilution of one OPD tablet in B 12 ml of citrate/phosphate buffer with addition of 5 μl of 30% H2O2) for 30 min in darkness at room temperature. The reaction was stopped by addition of 2N H2SO4 (100 μl/well), after that optical density at 490 nm was measured. IC50 value representing the concentration of the tested compound at which virus replication is lowered twice was calculated for every tested compound using Xlfit program according to the method described in [Wakita, T. u ∂p. (2005). Production of Infectious Hepatitis C Virus in Tissue Culture from a Cloned Viral Genome. Nature Medicine; 11:791-796.].
On to `CC(C)c1ccc2c(c1)c1c3n2CCN(CC(N)=O)C3CCC1` (centres unmarked) [1.2(1), 2-(8-isopropyl-1,2,3a,4,5,6-hexahydro-3H-pyrazino[3,2,1-jk]carbazol-3-yl)-acetamide], for which the IC50 (commonly the concentration that inhibits the measured activity by half) was 1700 nM.

Take `c1ccc(CN2CCCn3c4c(c5cc(C6CCCCC6)ccc53)CCCC42)cc1` (centres unmarked) [1.2(8)]: the IC50 is 1600 nM.

For `CCCN1CCN(C(=O)C2CCN(Cc3cc4ccccc4n3Cc3ccc(Cl)cc3)CC2)CC1` [1.3.1.1(13), {1-[1-(4-chlorobenzyl)-1H-indol-2-ylmethyl]-piperidin-4-yl}-(4-propylpiperazin-1-yl)-methanone], the IC50 was 300 nM.

As for `CCCN1CCN(C(=O)C2CCN(Cc3cc4ccccc4n3C)CC2)CC1` [1.3.1.1(14) * 2 HCl, 1-Methyl-2-({4-[(4-propylpiperazin-1-yl)carbonyl]piperidin-1-yl}methyl)-1H-indole dihydrochloride], the concentration for half-maximal inhibition (IC50) was 2100 nM.

`CN1CCN(C(=O)C2CCN(Cc3cc4ccccc4n3C)CC2)CC1` [1.3.1.1(15) * 2 HCl, 1-Methyl-2-({4-[(4-methylpiperazin-1-yl)carbonyl]piperidin-1-yl}methyl)-1H-indole]: the IC50 worked out at 2400 nM.

Regarding `CCCN1CCN(C(=O)C2CCCN(Cc3cc4ccccc4n3Cc3ccc(Cl)cc3)C2)CC1` (centres unmarked) [1.3.2.1(13) * 2 HCl, 1-(4-chlorobenzyl)-2-({3-[(4-propylpiperazin-1-yl)carbonyl]piperidin-1-yl}methyl)-1H-indole dihydrochloride], the IC50 came out at 400 nM.

With `Clc1ccc(Cn2c(CN3CCCC3)nc3ccccc32)cc1` [I Control, Clemizole, reference compound], the IC50 is 9000 nM.

The same experiment, now with this note: Huh7 cell culture infected with recombinant JFH-1 HCV; ELISA of cor-antigen; concentration at which virus replication is lowered twice; read-out: Inhibition of hepatitis C virus (IC50).
`CCCN1CCN(C(=O)C2CCCN(Cc3cc4ccccc4n3C)C2)CC1` (centres unmarked) [1.3.2.1(14) * 2 HCl, 1-Methyl-2-({3-[(4-propylpiperazin-1-yl)carbonyl]piperidin-1-yl}methyl-1H-indoledihydrochloride]: the half-maximal inhibitory concentration (IC50) was found to be 2100 nM.
